Experiments:
Format in all cases: cell-based
human TLR9 = target: T1, human TLR9 (Homo sapiens, UniProt Q9NR96); experiment: TLR9 inhibition reporter assay (HEK-Blue cells, SEAP reporter, ODN2006 stimulation); details: HEK-Blue cells overexpressing human TLR9, SEAP reporter, ODN2006 5 nM
T1 construct: host or cells: HEK-Blue cells
T1 sequence (Q9NR96 26-1032): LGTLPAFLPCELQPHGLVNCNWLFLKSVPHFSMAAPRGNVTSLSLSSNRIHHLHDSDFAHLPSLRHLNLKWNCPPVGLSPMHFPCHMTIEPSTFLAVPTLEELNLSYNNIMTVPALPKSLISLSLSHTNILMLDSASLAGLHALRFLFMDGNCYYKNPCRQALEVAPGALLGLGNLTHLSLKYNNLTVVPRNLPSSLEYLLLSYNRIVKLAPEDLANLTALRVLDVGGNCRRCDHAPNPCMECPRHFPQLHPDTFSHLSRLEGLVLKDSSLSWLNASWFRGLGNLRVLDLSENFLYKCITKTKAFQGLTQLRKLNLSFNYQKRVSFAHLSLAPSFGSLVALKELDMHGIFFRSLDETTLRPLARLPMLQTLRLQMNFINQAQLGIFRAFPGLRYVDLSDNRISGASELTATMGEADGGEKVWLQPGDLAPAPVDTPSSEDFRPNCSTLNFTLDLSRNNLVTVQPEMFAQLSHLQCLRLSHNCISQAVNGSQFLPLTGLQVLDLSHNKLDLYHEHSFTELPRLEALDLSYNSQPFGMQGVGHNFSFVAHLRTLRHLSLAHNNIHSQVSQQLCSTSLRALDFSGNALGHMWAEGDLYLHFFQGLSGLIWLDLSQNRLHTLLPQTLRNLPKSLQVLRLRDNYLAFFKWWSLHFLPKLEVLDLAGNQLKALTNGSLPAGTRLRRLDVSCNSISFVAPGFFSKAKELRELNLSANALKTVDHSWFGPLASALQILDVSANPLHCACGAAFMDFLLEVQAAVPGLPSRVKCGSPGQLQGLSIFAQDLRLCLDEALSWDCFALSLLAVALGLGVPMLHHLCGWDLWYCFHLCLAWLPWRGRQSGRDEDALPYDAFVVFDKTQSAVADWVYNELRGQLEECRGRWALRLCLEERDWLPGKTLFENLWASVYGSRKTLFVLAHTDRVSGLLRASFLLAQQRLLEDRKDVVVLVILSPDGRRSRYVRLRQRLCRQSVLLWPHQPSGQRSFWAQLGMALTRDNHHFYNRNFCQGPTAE
Outline: (§1)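 Dose–response from 0.05 nM to 50 μM was run in HEK-Blue human TLR7, TLR8 and TLR9 reporter cells. After 30 min at room temperature with compound, ligand was added (TLR7 gardiquimod 7.5 μM; TLR8 R848 15.9 μM; TLR9 ODN2006 5 nM) and SEAP measured next day, at 22 h.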

human TLR8 = target: T2, human TLR8 (Homo sapiens, UniProt Q9NR97); experiment: TLR8 inhibition reporter assay (HEK-Blue cells, SEAP reporter, R848 stimulation); details: HEK-Blue cells overexpressing human TLR8, SEAP reporter, R848 15.9 μM; read-out: TLR8 IC50
T2 construct: host or cells: HEK-Blue cells
T2 sequence (Q9NR97 27-1041): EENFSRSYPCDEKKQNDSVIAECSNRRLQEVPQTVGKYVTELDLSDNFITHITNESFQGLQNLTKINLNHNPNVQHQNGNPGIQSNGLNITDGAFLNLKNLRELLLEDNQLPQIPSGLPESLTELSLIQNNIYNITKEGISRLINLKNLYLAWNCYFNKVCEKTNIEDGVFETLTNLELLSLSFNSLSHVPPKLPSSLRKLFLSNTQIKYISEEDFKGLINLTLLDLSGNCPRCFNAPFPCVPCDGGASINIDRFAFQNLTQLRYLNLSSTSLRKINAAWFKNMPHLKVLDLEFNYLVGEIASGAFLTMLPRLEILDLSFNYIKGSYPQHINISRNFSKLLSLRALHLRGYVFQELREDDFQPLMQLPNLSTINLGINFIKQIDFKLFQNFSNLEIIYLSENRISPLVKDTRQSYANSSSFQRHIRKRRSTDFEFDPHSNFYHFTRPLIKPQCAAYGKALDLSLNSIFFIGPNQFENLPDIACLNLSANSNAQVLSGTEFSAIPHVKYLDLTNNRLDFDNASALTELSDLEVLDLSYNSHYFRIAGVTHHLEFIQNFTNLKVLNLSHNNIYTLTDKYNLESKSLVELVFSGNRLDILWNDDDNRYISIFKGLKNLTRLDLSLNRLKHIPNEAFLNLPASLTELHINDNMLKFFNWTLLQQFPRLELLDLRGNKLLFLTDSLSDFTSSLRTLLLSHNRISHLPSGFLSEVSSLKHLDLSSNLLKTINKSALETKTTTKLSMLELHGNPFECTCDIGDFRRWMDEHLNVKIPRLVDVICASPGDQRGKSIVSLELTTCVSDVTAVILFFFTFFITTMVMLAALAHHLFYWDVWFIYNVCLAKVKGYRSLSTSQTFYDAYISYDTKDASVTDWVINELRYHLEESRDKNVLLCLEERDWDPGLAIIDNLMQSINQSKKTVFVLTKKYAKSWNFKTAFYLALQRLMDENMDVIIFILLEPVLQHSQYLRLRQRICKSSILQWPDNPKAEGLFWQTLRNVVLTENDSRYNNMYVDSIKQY
Outline: as §1

human TLR7 = target: T3, human TLR7 (Homo sapiens, UniProt Q9NYK1); experiment: TLR7 inhibition reporter assay (HEK-Blue cells, SEAP reporter, gardiquimod stimulation); details: HEK-Blue cells overexpressing human TLR7, SEAP reporter, gardiquimod 7.5 μM; read-out: TLR7 IC50
T3 construct: host or cells: HEK-Blue cells
T3 sequence (Q9NYK1 27-1049): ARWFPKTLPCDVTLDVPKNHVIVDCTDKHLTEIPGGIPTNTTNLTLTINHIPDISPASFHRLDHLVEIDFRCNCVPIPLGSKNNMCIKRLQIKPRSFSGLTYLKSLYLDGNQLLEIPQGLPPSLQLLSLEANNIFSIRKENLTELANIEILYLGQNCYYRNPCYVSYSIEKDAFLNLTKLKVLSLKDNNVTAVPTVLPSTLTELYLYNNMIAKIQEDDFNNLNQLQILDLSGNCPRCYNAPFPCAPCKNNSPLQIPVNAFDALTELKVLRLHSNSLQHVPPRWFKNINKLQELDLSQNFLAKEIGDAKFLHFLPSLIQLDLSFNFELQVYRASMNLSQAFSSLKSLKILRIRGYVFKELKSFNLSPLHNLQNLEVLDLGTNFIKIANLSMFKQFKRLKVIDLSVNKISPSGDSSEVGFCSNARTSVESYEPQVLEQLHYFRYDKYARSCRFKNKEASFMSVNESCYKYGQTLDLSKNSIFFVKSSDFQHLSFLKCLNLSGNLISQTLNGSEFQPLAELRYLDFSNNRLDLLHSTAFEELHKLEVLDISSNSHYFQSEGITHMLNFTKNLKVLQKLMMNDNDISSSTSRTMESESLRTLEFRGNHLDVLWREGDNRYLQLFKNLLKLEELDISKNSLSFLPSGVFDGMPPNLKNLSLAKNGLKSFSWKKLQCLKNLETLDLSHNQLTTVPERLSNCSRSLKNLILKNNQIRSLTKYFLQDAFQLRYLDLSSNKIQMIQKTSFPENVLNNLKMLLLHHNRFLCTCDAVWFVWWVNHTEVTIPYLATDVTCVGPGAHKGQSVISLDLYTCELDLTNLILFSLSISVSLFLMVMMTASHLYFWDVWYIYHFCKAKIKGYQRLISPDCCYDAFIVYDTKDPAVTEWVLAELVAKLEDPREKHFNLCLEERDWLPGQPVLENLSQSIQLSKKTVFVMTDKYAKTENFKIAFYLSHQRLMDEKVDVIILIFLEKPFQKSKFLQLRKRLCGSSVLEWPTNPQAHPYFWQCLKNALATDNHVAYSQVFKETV
Outline: as §1

Structure (SMILES): Cc1c(-c2[nH]c3sc(N4C[C@@H](C)N(CCS(C)(=O)=O)C[C@@H]4C)nc3c2C(C)C)cn2ncnc2c1C [Example 337, 2-((2S,5R)-2,5-dimethyl-4-(2-(methylsulfonyl)ethyl)piperazin-1-yl)-5-(7,8-dimethyl-[1,2,4]triazolo[1,5-a]pyridin-6-yl)-6-isopropyl-4H-pyrrolo[3,2-d]thiazole]
- IC50 (human TLR9): 42.4 µM
- IC50 (human TLR8): 7.61 nM
- IC50 (human TLR7): 8.27 nM

Structure (SMILES): Cc1c(-c2[nH]c3sc(N4C[C@@H](C)N(CC(N)=O)C[C@@H]4C)nc3c2C(C)C)cn2ncnc2c1C [Example 338, 2-((2R,5S)-4-(5-(7,8-dimethyl-[1,2,4]triazolo[1,5-a]pyridin-6-yl)-6-isopropyl-4H-pyrrolo[3,2-d]thiazol-2-yl)-2,5-dimethylpiperazin-1-yl)acetamide]
- IC50 (human TLR9): 45.6 µM
- IC50 (human TLR8): 31.1 nM
- IC50 (human TLR7): 10.1 nM

Structure (SMILES): Cc1c(-c2[nH]c3sc(N4C[C@@H](C)N(CC(C)(C)O)C[C@@H]4C)nc3c2C(C)C)cn2ncnc2c1C [Example 339, 1-((2R,5S)-4-(5-(7,8-dimethyl-[1,2,4]triazolo[1,5-a]pyridin-6-yl)-6-isopropyl-4H-pyrrolo[3,2-d]thiazol-2-yl)-2,5-dimethylpiperazin-1-yl)-2-methylpropan-2-ol]
- IC50 (human TLR9): 36.6 µM
- IC50 (human TLR8): 3.86 nM
- IC50 (human TLR7): 19.9 nM

Structure (SMILES): CNCC(=O)N1C[C@H](C)N(c2nc3c(C(C)C)c(-c4cn5ncnc5c(C)c4C)[nH]c3s2)C[C@H]1C [Example 340, 1-((2R,5S)-4-(5-(7,8-dimethyl-[1,2,4]triazolo[1,5-a]pyridin-6-yl)-6-isopropyl-4H-pyrrolo[3,2-d]thiazol-2-yl)-2,5-dimethylpiperazin-1-yl)-2-(methylamino)ethan-1-one]
- IC50 (human TLR9): 5.22 µM
- IC50 (human TLR8): 3.38 nM
- IC50 (human TLR7): 4.64 nM

Structure (SMILES): Cc1c(-c2[nH]c3sc(N4C[C@@H](C)N(C(=O)CN(C)C)C[C@@H]4C)nc3c2C(C)C)cn2ncnc2c1C [Example 341, 1-((2R,5S)-4-(5-(7,8-dimethyl-[1,2,4]triazolo[1,5-a]pyridin-6-yl)-6-isopropyl-4H-pyrrolo[3,2-d]thiazol-2-yl)-2,5-dimethylpiperazin-1-yl)-2-(dimethylamino) ethan-1-one]
- IC50 (human TLR9): 16.5 µM
- IC50 (human TLR8): 9 nM
- IC50 (human TLR7): 7.86 nM

Structure (SMILES): Cc1c(-c2[nH]c3sc(N4CCN(C(=O)CN(C)C)C[C@@H]4C)nc3c2C(C)C)cn2ncnc2c1C [Example 346, (S)-1-(4-(5-(7,8-dimethyl-[1,2,4]triazolo[1,5-a]pyridin-6-yl)-6-isopropyl-4H-pyrrolo[3,2-d]thiazol-2-yl)-3-methylpiperazin-1-yl)-2-(dimethylamino)ethan-1-one]
- IC50 (human TLR9): 19.2 µM
- IC50 (human TLR8): 7.94 nM
- IC50 (human TLR7): 6.3 nM

Structure (SMILES): Cc1c(-c2[nH]c3sc(N4CCN(C5CCOCC5)C[C@@H]4C)nc3c2C(C)C)cn2ncnc2c1C [Example 350, (S)-5-(7,8-dimethyl-[1,2,4]triazolo[1,5-a]pyridin-6-yl)-6-isopropyl-2-(2-methyl-4-(tetrahydro-2H-pyran-4-yl)piperazin-1-yl)-4H-pyrrolo[3,2-d]thiazole]
- IC50 (human TLR9): 21.7 µM
- IC50 (human TLR8): 0.12 nM
- IC50 (human TLR7): 8.11 nM

Structure (SMILES): Cc1c(-c2[nH]c3sc(N4CCN(C(C)C)C[C@@H]4C)nc3c2C(C)C)cn2ncnc2c1C [Example 351, (S)-5-(7,8-dimethyl-[1,2,4]triazolo[1,5-a]pyridin-6-yl)-6-isopropyl-2-(4-isopropyl-2-methylpiperazin-1-yl)-4H-pyrrolo[3,2-d]thiazole]
- IC50 (human TLR9): 19.8 µM
- IC50 (human TLR8): 0.98 nM
- IC50 (human TLR7): 8.23 nM

Structure (SMILES): Cc1c(-c2[nH]c3sc(N4CCN(CC5CC5)C[C@@H]4C)nc3c2C(C)C)cn2ncnc2c1C [Example 352, (S)-2-(4-(cyclopropylmethyl)-2-methylpiperazin-1-yl)-5-(7,8-dimethyl-[1,2,4]triazolo[1,5-a]pyridin-6-yl)-6-isopropyl-4H-pyrrolo[3,2-d]thiazole]
- IC50 (human TLR9): 24.5 µM
- IC50 (human TLR8): 1.09 nM
- IC50 (human TLR7): 14.4 nM

Structure (SMILES): Cc1cc(-c2[nH]c3sc(N4CCN(C(C)C)C[C@H]4C)nc3c2C(C)C)cn2ncnc12 [Example 366, (R)-6-isopropyl-2-(4-isopropyl-2-methylpiperazin-1-yl)-5-(8-methyl-[1,2,4]triazolo[1,5-a]pyridin-6-yl)-4H-pyrrolo[3,2-d] thiazole]
- IC50 (human TLR9): 6.26 µM
- IC50 (human TLR8): > 3130 nM
- IC50 (human TLR7): > 3130 nM

Structure (SMILES): Cc1c(-c2[nH]c3sc(C(=O)NCCN4CCCC4)nc3c2C(C)C)cn2ncnc2c1C [Example 370, 5-(7,8-dimethyl-[1,2,4]triazolo[1,5-a]pyridin-6-yl)-6-isopropyl-N-(2-(pyrrolidin-1-yl)ethyl)-4H-pyrrolo[3,2-d]thiazole-2-carboxamide]
- IC50 (human TLR9): 6.44 µM
- IC50 (human TLR8): 1.38 nM
- IC50 (human TLR7): 12.4 nM

Structure (SMILES): Cc1c(-c2[nH]c3sc(C(=O)NCCN(C)C)nc3c2C(C)C)cn2ncnc2c1C [Example 372, 5-(7,8-dimethyl-[1,2,4]triazolo[1,5-a]pyridin-6-yl)-N-(2-(dimethylamino)ethyl)-6-isopropyl-4H-pyrrolo[3,2-d]thiazole-2-carboxamide]
- IC50 (human TLR9): 8.88 µM
- IC50 (human TLR8): 2.49 nM
- IC50 (human TLR7): 10.7 nM
